In patent US5512573A, “Use of phthaloylhydrazide derivatives as anti-hypoxic and defensive agents” (priority 1993, dated 1996):
Converted amounts (≈) assume the structure as drawn. Like-named read-outs stand apart in the source and are kept apart here.

What was measured:
psoriasis = tested on: psoriasis
Protocol: Patient, ill for 5 years. Was cured in the hospital several times during that period. Complained about itching, general weakness, unpleasant sensations in parts of the skin. […] Diagnosis: psoriasis approaching the acute phase.
The drug was administered intravenously to the patient.

mice, rats = conditions: oral and i.p., 500 and 2500 mg/kg, 14 days
Protocol: Acute toxicity tests were performed on two animal species (mice, rats). More than 80 mice and 100 rats were used. The pharmaceutical was administered orally and intraperitoneally in doses of 500 and 2500 mg/kg (individual doses). The period of observation was 14 days.

[1] = tested on: Corazolum- and strychnine-induced convulsions; conditions: 40 and 80 mg/kg
male mice = conditions: 40 to 80 mg/kg
Protocol: To study the pharmacological properties on the central nervous system, doses of 40 to 80 mg per kilogram of body weight were used. The choice of doses was based on safety criteria governing the use of medicines.
The neuropharmacological effects were studied in male mice of undefined strain which had reached sexual maturity. The mice, weighing 18 to 20 g, were given a solution of the drug intraabdominally. The neuropharmacological effects were studied on the basis of changes in the natural orientation reflex, in induced aggressiveness, and in muscle tone. The change in the natural sense of orientation was recorded according to the current method. To study the effect of the drug on induced aggressiveness, the electrical stimulation method (pain caused by electric current) was used.
The change in muscle tone was measured by means of the "pivot pin" method.

Hexenalum-induced sleep = conditions: 10 to 30 mg/kg, 15 min before Hexenalum 80 mg/kg
Protocol: The effect of the drug on the length of Hexenalum-induced anesthesia was studied, i.e., the drug was administered in doses of 10 to 30 mg per kilogram of body weight, 15 minutes before the administration of the Hexenalum solution in a dose of 80 mg/kg.

physchem [2] = experiment: physchem
male rats = tested on: male rats
Protocol: The effect of the sodium salt of 5-aminophthaloylhydrazide on blood pressure (BP) was examined in male rats weighing 230 to 270 g, in a controlled experiment where the rats were anesthetized with urethane. The blood pressure was recorded on tape by means of an electrical kymograph.
At the same time, we recorded the electrocardiogram in the second standard position as well as any changes in frequency and depth of respiration by means of a Morey capsule. We administered 5-aminophthaloylhydrazide in the femoral vein in the form of an aqueous solution prepared in a 2% sodium bicarbonate solution (pH=8.2), in doses of 40 mg/kg, 80 mg/kg and 50 mg/kg. Research on 5-aminophthaloylhydrazide was performed on 16 rats.

physchem [3] = experiment: physchem; remark: listed apart in the source
[4] = Summary of experiments on phthaloylhydrazide derivatives; assay type: in vivo
female pregnant rats = conditions: 60 mg/kg i.p.
Protocol: Teratogenic tests and embryotoxicity tests were performed on 58 female pregnant rats. A single dose was injected intraperitoneally on days 1, 3, 7, 10, 14 and 17 of gestation (60 mg/kg). The rats were decapitated on day 21 of the pregnancy and the uteruses and fetuses were examined.

[5] = tested on: high-level hypoxia in male mice
Protocol: Experiments to test the resistance of the animals to high-level hypoxia were performed on 120 male mice weighing 18 to 20 g, and having reached sexual maturity.
Five minutes before the experiment, the animals were given the following doses intramuscularly:
the first group (control group), 0.1 ml of physiological solution;
the second group (test group), a 20% oil solution in a dose of 30 mg/kg;
the third group, 5-aminophthaloylhydrazide in a dose of 30 mg/kg;
the fourth group, 5-aminophthaloylhydrazide in a dose of 60 mg/kg;
the fifth group, 5-aminophthaloylhydrazide in a dose of 80 mg/kg;
the sixth group, 5-aminophthaloylhydrazide in a dose of 150 mg/kg;
the seventh group, the drug in a dose of 200 mg/kg.
The period of tolerance to hypoxia was determined by raising the animals to an altitude of 10,400 meters at the speed of 100 meters per second.

[6] = tested on: brain ischemia (carotid tying) in mice; experiment: Example 4: carotid tying and release in mice; assay type: in vivo
Protocol: We performed experiments on 50 mice of the pyramid by tying the carotid under light anesthesia. After 7 minutes, we released the tie and restored the blood circulation in the ischemic area.

physchem [7] = conditions: octanol/water, pH 7.4
transplant rejection = experiment: Skin transplant from another animal (description); assay type: in vivo; conditions: 100 to 200 mg/kg
Excerpt: Treatment started on the second day following a skin transplant from another animal and continued for 45 to 50 days.

Nc1cccc2c(=O)[nH][nH]c(=O)c12 [5-aminophthaloylhydrazide, 5-amino-2,3-dihydrophthalazine-1,2 dione]
response to subsequent treatment cycle (psoriasis; 12 days): made it possible to eliminate the main symptoms and led to a long-term remission of the main symptoms | residual pustules and papules (psoriasis; flexor parts of the hands): Individual pustules and papules on the flexor parts of the hands remained | time to return of acute symptoms (psoriasis; human, in vivo): 4 months | clinical symptoms (psoriasis; intravenous, after 10 days of treatment): the itching and weakness disappeared, the temperature dropped and the skin symptoms disappeared | affected parts of the skin tissue (psoriasis; intravenous, day 20): the affected parts of the skin tissue had shrunk | morphological alteration of liver, kidneys, heart and brain (mice, rats): No morphological alteration was observed | percentage of lethal outcome (mice, rats; vs control group): did not exceed that of the control group | effects of acute focal hypoxia (acute focal hypoxia; in a series of cases): it was possible to prevent the effects of acute focal hypoxia | therapeutic effect by number of administrations (acute focal hypoxia; single vs two administrations at 12-hour intervals): a single administration of the drug proved insufficient and the main therapeutic effect was obtained after two administrations | stability (anhydrous conditions): stable in anhydrous conditions (can be preserved for over one year) | stability in aqueous solutions (aqueous solutions): sometimes unstable in aqueous solutions | reduction of induced convulsions [1]: did not reduce the induced convulsions | prevention of Corazolum- and strychnine-induced convulsions ([1]; preventive administration): did not prevent Corazolum- and strychnine-induced convulsions | pain threshold (male mice): nor did it cause changes in muscle tone or modifications in the pain threshold | natural orientation reflex (male mice; intraabdominal): did not suppress the natural orientation reflex | muscle tone (male mice; pivot pin method): nor did it cause changes in muscle tone | extension of Hexenalum-induced sleep (Hexenalum-induced sleep): did not cause a noteworthy extension of the Hexenalum-induced sleep | solubility (physchem [2]; pH 6.5): 2 mM (≈ 354 µg/mL) | solubility (physchem [2]; pH 7.4): 12 mM (≈ 2130 µg/mL) | electrocardiogram parameters (male rats; 20 mg and 50 mg/kg): no changes were observed in the electrocardiogram parameters of the heart | respiratory functions (male rats; 20 mg and 50 mg/kg): no impairment of the respiratory functions was observed | negative effect on the cardiovascular system or the respiration (male rats; 40 and 50 mg/kg): did not present any evidence of a negative effect on the cardiovascular system or the respiration | rise in blood pressure compared to the initial level (male rats; i.v. 1% solution, 0.6 ml/minute, average): 1.57±5.93% | sudden fluctuations in the increase in blood pressure (male rats; i.v., 40 mg or 50 mg/kg): No sudden fluctuations in the increase in blood pressure were observed | time for blood pressure to return to the initial level (male rats; i.v., average): ≤ 30 min | fluctuations in the level of blood pressure compared to the beginning (male rats; thirty minutes after administration, average): 2.79±0.72 | pKa (physchem [3]): 6.3 | pharmacological activity, anti-hypoxic and defensive action ([4]; doses of 10 to 300 mg/kg): possess a pronounced pharmacological activity | therapeutic effects ([4]; in vivo): major therapeutic effects | abnormality of the fetuses (female pregnant rats; single dose on days 1, 3, 7, 10, 14 and 17 of gestation): No abnormality of the fetuses was observed | site of uterine attachment, number, weight and mortality of the fetuses (female pregnant rats; vs control group): did not differ from those obtained for the control group | clinical symptoms (generalized psoriasis; 20 mg/kg for 10 days): elimination of the itching and a lessening of the skin symptoms | skin clearance (generalized psoriasis; after a 30-day treatment): the skin was completely clear | number of neutrophils in the epidermal cells (generalized psoriasis; biopsy samples): considerable drop in the number of neutrophils in the epidermal cells | remission period (generalized psoriasis; human, in vivo): 8 months | skin symptoms after topical application (generalized psoriasis; solution of the drug in 15% DMSO): led quickly to the disappearance of the skin symptoms, including the pustules | therapeutic effectiveness vs Dibunolo ([5]; 30 mg/kg): less therapeutically effective than the known antioxidant Dibunolo | therapeutic effectiveness vs Dibunolo ([5]; 100 mg, p<0.001): exceeded that of Dibunolo in a reliable manner | dose with the greatest therapeutic effect ([5]; intramuscular): 80 mg/kg | extension of life under high-level hypoxia ([5]; intramuscular, all doses): extended life under conditions of high-level hypoxia in all cases | therapeutic effect on last increase in dose ([5]; last increase in administered amount): did not increase the therapeutic effect achieved | percentage of surviving animals ([6]; 30 mg/kg, p>0.05): did not increase | cases with symptoms of neurological impairment ([6]; 100 mg/kg intramuscular): 3 cases | effectiveness of intramuscular administration ([6]; 100 mg/kg intramuscular): the intramuscular administration of the drug was not effective | surviving animals ([6]; 100 mg/kg intramuscular): Six out of 10 | cases without symptoms of neurological impairment ([6]; 100 mg/kg intravenous): 8 cases | surviving animals ([6]; 100 mg/kg intravenous): 9 out of 10 | cases with symptoms of damage to the central nervous system ([6]; 150 mg/kg): 2 cases | surviving animals ([6]; 150 mg/kg): 80% | survival rate on further dose increase ([6]; above 100 mg/kg): did not lead to a reliable increase in the survival rate | surviving animals without symptoms of neurological impairment ([6]; two administrations of 100 mg/kg, 12-hour interval): 9 animals | logD (physchem [7]): -0.699 | effectiveness vs hormonal drugs (corticosteroids) (transplant rejection): exceeds the hormonal drugs with long-term action known thus far (corticosteroids)
